Assays:
Lung cancer cells = conditions: mice; PG-TXL injected at 120 mg/kg; paclitaxel used alone; cited from earlier work
[1] = In vivo toxicity study in healthy mice (survival, body weight); conditions: Kun Ming mice, 5 mg/kg tail vein at 0, 5 and 10 days
Description: 20 healthy Kun Ming mice were randomly divided (10 each for male and female) into two groups. Cisplatin and γ-PGA-CDDP was individually injected in each group in a tail vein. The injections were done at 0, 5, and 10 days at 5 mg/kg. The survival and body weight of the mice were recorded. The results are shown in FIG. 10 and FIG. 11 which are comparisons of the toxicity of γ-PGA-CDDP and CDDP based on the survival of China KM mice and based on the body weight of China KM mice.

[2] = tested on: Human breast cancer cells Bcap-37; assay: Bcap-37 xenograft model, survival and body weight; format: in vivo, BALB/C female SKID mouse; conditions: Bcap-37 xenograft mice, equivalent of 4 mg/kg cisplatin, tail vein at 0 and 5 days
Description: Human breast cancer cells Bcap-37 in DMEM with 10% […] were cultured at 37° C. and 5% CO2. 5×10^6 Bcap cells were injected in each of BALB/C female SKID mouse (18 mice, 4 week old, 20 g each). After 7 days the mice were randomly divided into 3 groups, 6 mice per group. The first group was treated with saline, the second group was treated with cisplatin, and the third group was treated with γ-PGA-CDDP. γ-PGA-CDDP complex (at equivalent of 4 mg/kg cisplatin) was injected in a tail vein at 0 and 5 days. The survival and body weight was recorded. The results are shown in FIG. 12 and FIG. 13 which are comparisons of the toxicity of γ-PGA-CDDP and CDDP based on the survival and body weight of BALB/C female mice.

| Compound | reduction of lung cancer cells (Lung cancer cells) [%] | body weight change (in vivo toxicity) [1] | mice died ([1]; after 15 days) [%] | body weight change (toxicity) [2] |
| --- | --- | --- | --- | --- |
| CC(=O)O[C@H]1C(=O)[C@@]2(C)[C@H]([C@H](OC(=O)c3ccccc3)[C@]3(O)C[C@H](OC(=O)[C@H](O)[C@@H](NC(=O)c4ccccc4)c4ccccc4)C(C)=C1C3(C)C)[C@]1(OC(C)=O)CO[C@@H]1C[C@@H]2O [paclitaxel] | 58 |  |  |  |
| cis-daimminedichloroplatinum(II) [cisplatin] |  | reduced | 90 | obvious decrease of body weight |
